Laboratory results: patent US11285169B2, “Methods for modulating chemotherapeutic cytotoxicity” (The United States of America, as represented by the …, priority 2013, dated 2022)

How the values were obtained:
4T1 breast tumors = test: 4T1 breast cancer cells in mammary fat pad of Balb/c mice: tumor growth, weight, lung metastasis; assay type: in vivo, mouse; conditions: for tumor weight at end of study: excised tumors; for tumor growth (tumor volume): weekly treatment, followed for 30 days, Dox i.v., CD47 M i.p. 48 hours before
Protocol: Balb/c mice were injected with 5×10^3 4 T1 breast cancer cells in the mammary fat pad. Tumors were left untreated, treated with 100 μl of 10 μg/mL doxorubicin (Dox) or with 10 μg/mL Dox in combination with 10 μM CD47 Morpholino (CD47 M). Doxorubicin treatment was given intravenously weekly. Treatment with CD47 M was given intraperitoneally 48 hours prior to doxorubicin injection.
4T1B breast cancer cells were implanted in the mammary fat-pad of Balb/C mice. The mice were treated weekly with saline, doxorubicin, CD47 M, or the combination of CD47 M with doxorubicin. Tumor growth was measured using calipers and was followed for 30 days. Treatment with CD47 morpholino was done two days prior to each treatment with doxorubicin for four weeks.
Tumors were excised at the end of the study and weighed. Tumors of mice treated with saline tripled in size (FIG. 1B).
The 4T1 breast cancer model is a well known model for metastasis of orthotopic breast tumors to lung and other organs. Mice were injected in the mammary fat pad with 4T1 cells. CD47 morpholino was administered intraperitoneally at a dose of 10 μM per mouse. Doxorubicin was adminstered intravenously at a dose of 10 mg/kg. The CD47 morpholino was administered weekly and the Doxorubicin administration was done weekly 48 hours after CD47 treatment. Five mice per group were treated. Lungs were exised, paraffin embedded, and hematoxylin and eosin stain was used to determine tissue structure.

4T1 breast cancer cells [1] = test: Oxygen consumption rate and extracellular acidification rate, XF24 analyzer, 4T1 cells; assay type: cell-based, mouse; conditions: for extracellular acidification rate (ECAR): 4T1B cells, same treatments as OCR; for oxygen consumption rate (OCR): 4T1 cells, CD47 morpholino 10 μM 48 hours, doxorubicin 10 μg/ml 1 hour
Protocol: (§1) 4T1 breast cancer cells or B16 melanoma cells (2×10^4 cells) were plated in the presence or absence of CD47 morpholino (10 μM). After a 48 hour period of incubation, cells were treated with doxorubicin for 1 hour (10 μg/ml). OCR and ECAR were measured using an XF24 analyzer (Seahorse Bioscience, N. Billerica, Mass.).
(§2) To start elucidating the molecular mechanism of breast cancer sensitization to anthracycline therapy with CD47 blockade oxygen consumption rate (OCR) was tested. OCR is a measurement of mitochondrial respiration and is extremely sensitive to changes in metabolic demand (Tao et al., Anal. Biochem. 381:43-52, 2008). Increased OCR is an indicator of mitochondrial dysfunction in transformed cells associated with tumor aggressiveness and resistance to therapy (Vaupel and Mayer, Int. J. Biochem. Cell Biol. 44:1477-1481, 2012). To measure OCR, 4T1 breast cancer cells or B16 melanoma cells were plated in 24-well plates using the XF24 flux analyzer (Seahorse Bioscience). Cells were exposed to known mitochondrial poisons (oligomicin, carbonilcyanide p-triflouromethoxy-phenylhydrazone FCCP, or […]) to determine basal and maximal OCR.
It is well known that cancer cells show increased glycolytic flux. […] The extracellular acidification rate (ECAR) was measured in 4T1B cells using the XF24 flux analyzer following the same treatments stated above.

B16 melanoma cells = test: Oxygen consumption rate, XF24 analyzer, B16 cells; assay type: cell-based, mouse; conditions: CD47 morpholino 10 μM 48 hours, doxorubicin 10 μg/ml 1 hour
Protocol: as §1, §2

[2] = tested on: Glut-1 glucose transporter; test: Glut-1 expression in tumors by western blot; assay type: in vivo, mouse; conditions: western blot of excised tumors
Protocol: Glucose uptake was measured 24 hours after treatment by adding 2-NBDG, which is a fluorescently labeled deoxyglucose analog that is used primarily to directly monitor glucose uptake by living cells. This confirmed that the combination treatment modified glucose metabolism to sensitize cells to Dox treatment (FIG. 10). Furthermore, blockade of CD47 in combination with dox decreased expression of the Glut-1 glucose transporter in vivo (FIG. 11). Tumors of mice were exised and protein expression was determined by western blot hybridization. Expression of Glut-1 was not affected by treatment with saline, doxorubicin or CD47 morpholino (CD47M) alone. […] Glut-1 facilitates the transport of glucose in cells and is a poor prognostic factor in breast cancer and other cancer types.

PINK and PARKIN = PINK and PARKIN gene expression by qRT-PCR in 4T1 cells; assay type: cell-based, mouse; conditions: single agents
Protocol: Autophagy can promote either survival or death of tissue. Selective mitochondrial turnover by mitophagy in tumor tissue can shift this pathway to a pro-death response (Gargini et al., Autophagy 7:466-476, 2011). To further understand the mechanism of mitophagy in breast cancer cells, 4T1 breast cancer cells were plated and treated with CD47 morpholino for 48 hours. […] Gene expression was determined by qRT-PCR.

CD47 = test: Western blot of CD47 protein in tumors; assay type: in vivo, mouse; conditions: 48 hours after treatment
CD47 null Jurkat cells = tested on: CD47 null Jurkat cells
Protocol: (§3) Wild type or CD47 null Jurkat T cells were plated at a density of 7×10^3/well in 96 well plates or 500 cells/well in 1536 well plates. Cells were treated with increasing amounts of doxorubicin. Cell viability was measured 48 or 72 hours after treatment by MTS reduction or using CellTiter-Glo® cell viability assay (Promega, Madison Wis.).
(§4) Wild type or CD47 null Jurkat cells were plated at a density of 7×10^3/well in 96 well plates. Cells were treated with 10 μg/ml 5-FU or […] camptothecin. Cell viability was measured 72 hours after treatment by MTS reduction.

wild type Jurkat cells = tested on: wild type Jurkat cells
Protocol: as §3, §4

Atg5 and Atg7 = test: Autophagy gene expression in hearts of WT and CD47 null mice; assay type: in vivo, mouse; conditions: 24 hours of treatment
Protocol: Samples were collected after 24 hours of treatment.
WT and CD47 null mice were treated with doxorubicin to determine effects on autophagy gene expression.

4T1 breast cancer cells [3] = test: Cell viability by MTS reduction, 4T1 cells with or without CD47 morpholino; assay type: cell-based, mouse; conditions: 10 μM CD47 morpholino 48 hours, doxorubicin 72 hours
Protocol: Cells were plated in the presence or absence of 10 μM CD47 morpholino. After 48 hours, cells were treated with the indicated amounts of doxorubicin (10 μg/ml in FIGS. 7B and C). Cell viability was measured 72 hours after treatment by MTS reduction (FIGS. 7A and D) or 24 hours after treatment by lactate dehydrogenase (LDH) release (FIGS. 7B and C). * p<0.001. Control cells were untreated and Endoporter indicates treatment with vehicle without morpholino in FIGS. 7B and C.
4T1 breast cancer cells were treated with CD47 morpholino and treated with increasing concentrations of doxorubicin.

PINK = PINK immunostaining of tumor and heart sections; assay type: in vivo, mouse; conditions: heart
Protocol: Briefly, slides were deparaffinized in xylene and rehydrated in graded alcohol. Antigen retrieval was performed using microwave antigen retrieval method with Target Retrieval Solution, pH 6.1 (Dako, Carpinteria, Calif.). […] Slides were incubated with respective antibodies. Sections were treated with streptavidin-biotin and DAB (3,3-diaminobenzidine) was used as chromogen. Hematoxylin was used for counterstaining. The intensity of the staining was evaluated under light microscopy.
Tissue sections from the initial tumor model were immune-stained for PINK.

cardiac tissue = conditions: mouse, in vivo
Text: Hearts were collected from mice at the end of the tumor studies after four rounds of weekly doxorubicin treatment in the presence or absence of CD47 blockade. Sections were paraffin embedded and stained with H&E to determine tissue histology.
Tissue sections were subjected to TUNEL staining to detect cell death.

lung tissue = conditions: mouse, in vivo

Compound: CD47 morpholino: antisense morpholino oligonucleotide complementary to human and murine CD47, CGTCACAGGCAGGACCCACTGCCCA (SEQ ID NO: 3) (all phosphorodiamidate morpholino (PMO))
- tumor weight at end of study (4T1 breast tumors): reduction in tumor weight
- tumor growth (tumor volume) (4T1 breast tumors): slightly delayed tumor growth
- extracellular acidification rate (ECAR) (4T1 breast cancer cells [1]): slight decrease in the ECAR
- oxygen consumption rate (OCR) (4T1 breast cancer cells [1]): caused a reduction in OCR
- oxygen consumption rate (OCR) (B16 melanoma cells): caused a reduction in OCR
- Glut-1 expression in tumors [2]: not affected
- PINK and PARKIN gene expression (in words) (PINK and PARKIN): minimal effects
- CD47 protein in tumors (CD47): decrease in CD47 protein

Compound: COc1cccc2c1C(=O)c1c(O)c3c(c(O)c1C2=O)C[C@@](O)(C(=O)CO)C[C@@H]3O[C@H]1C[C@H](N)[C@H](O)[C@H](C)O1 [Doxorubicin]
- cell viability (CD47 null Jurkat cells; CD47 deficient Jurkat T cells, increasing concentration of doxorubicin, 72 hours): dose-dependent protection
- cell viability (wild type Jurkat cells; WT Jurkat T cells, increasing concentration of doxorubicin, 72 hours): decreased viability
- tumor weight at end of study (4T1 breast tumors): reduction in tumor weight
- tumor growth (tumor volume) (4T1 breast tumors): slightly delayed tumor growth
- extracellular acidification rate (ECAR) (4T1 breast cancer cells [1]): high acidification in the media
- oxygen consumption rate (OCR) (4T1 breast cancer cells [1]): showed the same pattern
- oxygen consumption rate (OCR) (B16 melanoma cells): showed the same pattern
- Glut-1 expression in tumors [2]: not affected
- PINK and PARKIN gene expression (in words) (PINK and PARKIN): minimal effects
- Atg5 and Atg7 mRNA levels in hearts (Atg5 and Atg7; CD47 null mice): markedly increased
- Atg5 mRNA level in hearts (Atg5 and Atg7; WT mice): slight reduction of Atg5
- cell viability (4T1 breast cancer cells [3]): reduction in cell viability
- PINK expression in hearts (PINK): No change in PINK expression
- cardiac tissue histology (H&E) (cardiac tissue): characteristic degeneration of cardiac muscle
- cell death in cardiac tissue (TUNEL staining) (cardiac tissue): high TUNEL positive staining
- lung tissue condition / fibrosis (lung tissue): less fibrosis

Compound: CC[C@@]1(O)C(=O)OCc2c1cc1n(c2=O)Cc2cc3ccccc3nc2-1 [Camptothecin]
- cytotoxicity (CD47 null Jurkat cells; human): 56%
- cytotoxicity (wild type Jurkat cells; human): 79%
